From ChEMBL document CHEMBL5291721, “A preclinical secondary pharmacology resource illuminates target-adverse drug reaction associations of marketed drugs” (Nat Commun, 2023) come the findings set out here.

The structures appear in SMILES notation.

Targets include D(3) dopamine receptor (Homo sapiens, UniProt P35462); Histamine H3 receptor (Homo sapiens, UniProt Q9Y5N1); Mu-type opioid receptor (Homo sapiens, UniProt P35372).
Experiment [1] addresses Voltage-gated inwardly rectifying potassium channel KCNH2 (Homo sapiens, UniProt Q12809). The class given is functional. Particulars: read-out: AC50.
The next experiment has as its target T1, Estrogen receptor (Homo sapiens, UniProt P03372).
T1 sequence (P03372 whole entry): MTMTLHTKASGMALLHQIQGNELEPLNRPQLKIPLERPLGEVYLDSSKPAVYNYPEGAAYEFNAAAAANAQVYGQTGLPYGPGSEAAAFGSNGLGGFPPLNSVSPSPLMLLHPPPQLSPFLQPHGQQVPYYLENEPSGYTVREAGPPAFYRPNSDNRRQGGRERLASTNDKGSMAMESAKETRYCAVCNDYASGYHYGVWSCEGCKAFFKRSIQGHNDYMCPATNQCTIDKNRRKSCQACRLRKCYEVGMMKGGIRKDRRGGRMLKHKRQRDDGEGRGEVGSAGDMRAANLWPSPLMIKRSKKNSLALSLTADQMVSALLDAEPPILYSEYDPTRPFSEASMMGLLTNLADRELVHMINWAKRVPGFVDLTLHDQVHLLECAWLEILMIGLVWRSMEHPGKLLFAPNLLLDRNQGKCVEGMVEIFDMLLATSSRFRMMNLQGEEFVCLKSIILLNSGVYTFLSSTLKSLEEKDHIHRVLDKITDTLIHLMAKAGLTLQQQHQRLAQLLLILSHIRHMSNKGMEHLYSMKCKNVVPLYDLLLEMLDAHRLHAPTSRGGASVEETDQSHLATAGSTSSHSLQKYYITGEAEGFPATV

Experiment [2] has as its target T2, Amine oxidase [flavin-containing] A (Homo sapiens, UniProt P21397).
T2 sequence (P21397 whole entry): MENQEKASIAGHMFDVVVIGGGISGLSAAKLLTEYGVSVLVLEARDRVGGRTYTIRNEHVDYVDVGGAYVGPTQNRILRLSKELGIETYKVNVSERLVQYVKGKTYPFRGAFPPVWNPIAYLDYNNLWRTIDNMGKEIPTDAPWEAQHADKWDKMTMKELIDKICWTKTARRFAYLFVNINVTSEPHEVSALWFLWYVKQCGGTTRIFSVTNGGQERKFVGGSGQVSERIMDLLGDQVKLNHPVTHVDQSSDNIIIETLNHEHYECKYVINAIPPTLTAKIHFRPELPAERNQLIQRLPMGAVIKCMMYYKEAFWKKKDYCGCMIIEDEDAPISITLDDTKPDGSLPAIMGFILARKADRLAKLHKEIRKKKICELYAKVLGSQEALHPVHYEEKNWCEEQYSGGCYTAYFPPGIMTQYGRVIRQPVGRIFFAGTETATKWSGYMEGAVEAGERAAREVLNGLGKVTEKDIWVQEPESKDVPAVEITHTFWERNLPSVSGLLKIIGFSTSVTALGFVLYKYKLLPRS
The class given is functional.

For experiment [3], the target named is cGMP-inhibited 3',5'-cyclic phosphodiesterase 3A (Homo sapiens, UniProt Q14432). The format is functional.
Chain of cGMP-inhibited 3',5'-cyclic phosphodiesterase 3A (Q14432 whole entry): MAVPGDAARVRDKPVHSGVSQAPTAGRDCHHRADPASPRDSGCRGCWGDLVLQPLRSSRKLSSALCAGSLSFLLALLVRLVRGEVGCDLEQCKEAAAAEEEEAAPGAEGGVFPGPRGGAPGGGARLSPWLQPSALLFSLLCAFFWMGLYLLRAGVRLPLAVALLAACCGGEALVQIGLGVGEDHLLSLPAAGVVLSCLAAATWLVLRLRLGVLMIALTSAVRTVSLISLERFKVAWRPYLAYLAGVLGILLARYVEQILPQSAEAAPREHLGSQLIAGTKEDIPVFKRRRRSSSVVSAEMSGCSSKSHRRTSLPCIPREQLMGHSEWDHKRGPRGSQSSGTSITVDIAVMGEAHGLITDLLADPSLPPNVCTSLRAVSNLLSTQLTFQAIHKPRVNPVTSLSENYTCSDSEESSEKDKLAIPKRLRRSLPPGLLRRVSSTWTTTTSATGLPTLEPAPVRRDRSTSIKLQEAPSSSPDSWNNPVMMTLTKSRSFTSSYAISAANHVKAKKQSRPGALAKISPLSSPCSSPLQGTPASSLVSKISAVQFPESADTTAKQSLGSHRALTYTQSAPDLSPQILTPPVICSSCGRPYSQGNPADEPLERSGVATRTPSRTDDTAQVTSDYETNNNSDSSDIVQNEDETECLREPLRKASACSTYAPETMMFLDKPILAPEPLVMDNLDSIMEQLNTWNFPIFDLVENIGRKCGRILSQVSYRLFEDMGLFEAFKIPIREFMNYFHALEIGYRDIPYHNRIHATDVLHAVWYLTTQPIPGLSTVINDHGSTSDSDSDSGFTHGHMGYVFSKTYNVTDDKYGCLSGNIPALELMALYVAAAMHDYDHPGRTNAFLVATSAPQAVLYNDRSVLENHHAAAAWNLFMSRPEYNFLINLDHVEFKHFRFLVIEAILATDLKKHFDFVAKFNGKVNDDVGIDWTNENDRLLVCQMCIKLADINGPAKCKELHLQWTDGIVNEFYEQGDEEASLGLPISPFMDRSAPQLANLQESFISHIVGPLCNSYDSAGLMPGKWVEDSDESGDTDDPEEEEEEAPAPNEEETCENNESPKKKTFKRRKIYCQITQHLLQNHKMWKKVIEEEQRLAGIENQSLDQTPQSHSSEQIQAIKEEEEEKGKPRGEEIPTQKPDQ
The next experiment has as its target T3, Progesterone receptor (Homo sapiens, UniProt P06401).
T3 sequence (P06401 whole entry): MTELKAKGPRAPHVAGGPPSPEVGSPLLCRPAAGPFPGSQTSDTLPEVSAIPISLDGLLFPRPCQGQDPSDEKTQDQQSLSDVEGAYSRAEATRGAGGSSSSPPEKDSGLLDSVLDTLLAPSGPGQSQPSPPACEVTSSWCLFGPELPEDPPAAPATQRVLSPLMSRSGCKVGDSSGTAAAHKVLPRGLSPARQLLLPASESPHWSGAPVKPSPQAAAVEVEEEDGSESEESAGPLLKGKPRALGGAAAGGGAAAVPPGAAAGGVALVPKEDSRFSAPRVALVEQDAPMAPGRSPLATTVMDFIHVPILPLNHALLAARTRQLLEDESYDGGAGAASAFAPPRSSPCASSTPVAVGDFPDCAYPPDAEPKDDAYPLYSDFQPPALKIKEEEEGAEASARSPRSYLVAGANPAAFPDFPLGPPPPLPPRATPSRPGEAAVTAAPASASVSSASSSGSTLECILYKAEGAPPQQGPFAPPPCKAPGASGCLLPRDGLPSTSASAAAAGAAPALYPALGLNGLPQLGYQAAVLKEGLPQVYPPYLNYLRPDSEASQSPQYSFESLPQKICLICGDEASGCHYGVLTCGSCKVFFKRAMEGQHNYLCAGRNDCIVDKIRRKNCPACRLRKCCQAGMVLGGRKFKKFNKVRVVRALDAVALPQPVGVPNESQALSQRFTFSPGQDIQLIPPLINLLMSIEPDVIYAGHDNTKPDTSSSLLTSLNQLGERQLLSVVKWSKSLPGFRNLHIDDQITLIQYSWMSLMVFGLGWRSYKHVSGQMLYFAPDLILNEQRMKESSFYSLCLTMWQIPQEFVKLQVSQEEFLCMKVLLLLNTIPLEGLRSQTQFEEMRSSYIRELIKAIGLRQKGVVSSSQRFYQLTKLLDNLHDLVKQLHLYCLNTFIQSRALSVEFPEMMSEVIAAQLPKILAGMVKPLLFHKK

Experiment [4] has as its target T4, Prostaglandin G/H synthase 1 (Homo sapiens, UniProt P23219). The format is functional.
Experiment [5] has as its target T4, Prostaglandin G/H synthase 1. The format is functional. The source holds these as a separate data set.
Experiment [6] has as its target Sodium-dependent noradrenaline transporter (Homo sapiens, UniProt P23975).
Experiment [7] deals with Sodium-dependent dopamine transporter (Homo sapiens, UniProt Q01959).
Chain of Sodium-dependent dopamine transporter (Q01959 whole entry): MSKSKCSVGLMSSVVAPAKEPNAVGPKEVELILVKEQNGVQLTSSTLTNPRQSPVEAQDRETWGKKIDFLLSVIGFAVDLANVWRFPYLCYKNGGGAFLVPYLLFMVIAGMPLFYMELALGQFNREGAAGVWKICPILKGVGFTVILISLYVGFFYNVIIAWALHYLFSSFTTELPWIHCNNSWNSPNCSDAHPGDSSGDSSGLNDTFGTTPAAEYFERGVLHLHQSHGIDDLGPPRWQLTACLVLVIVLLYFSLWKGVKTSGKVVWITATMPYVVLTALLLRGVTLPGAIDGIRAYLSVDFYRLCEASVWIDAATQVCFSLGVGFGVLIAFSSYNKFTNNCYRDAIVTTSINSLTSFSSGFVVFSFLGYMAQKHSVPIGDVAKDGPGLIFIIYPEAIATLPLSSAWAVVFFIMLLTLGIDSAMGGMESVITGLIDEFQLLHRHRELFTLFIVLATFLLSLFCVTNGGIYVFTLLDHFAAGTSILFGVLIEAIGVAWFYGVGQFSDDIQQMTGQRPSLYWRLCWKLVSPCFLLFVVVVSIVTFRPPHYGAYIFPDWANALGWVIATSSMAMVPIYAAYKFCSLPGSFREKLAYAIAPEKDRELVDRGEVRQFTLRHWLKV
Further: assay procedure not described here.

Chain of Histamine H3 receptor (Q9Y5N1 whole entry): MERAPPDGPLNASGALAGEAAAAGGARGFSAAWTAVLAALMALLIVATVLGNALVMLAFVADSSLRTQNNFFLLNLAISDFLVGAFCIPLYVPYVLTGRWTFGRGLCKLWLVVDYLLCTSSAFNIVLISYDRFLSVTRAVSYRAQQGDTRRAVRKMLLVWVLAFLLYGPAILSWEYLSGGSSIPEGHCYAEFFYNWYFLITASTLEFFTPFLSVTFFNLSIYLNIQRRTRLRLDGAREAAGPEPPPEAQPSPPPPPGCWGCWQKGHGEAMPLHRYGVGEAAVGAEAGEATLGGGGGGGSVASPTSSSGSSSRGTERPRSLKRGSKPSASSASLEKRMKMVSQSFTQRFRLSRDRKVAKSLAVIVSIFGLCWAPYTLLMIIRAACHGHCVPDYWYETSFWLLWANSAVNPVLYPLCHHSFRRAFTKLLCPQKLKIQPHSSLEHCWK
Chain of Mu-type opioid receptor (P35372 whole entry): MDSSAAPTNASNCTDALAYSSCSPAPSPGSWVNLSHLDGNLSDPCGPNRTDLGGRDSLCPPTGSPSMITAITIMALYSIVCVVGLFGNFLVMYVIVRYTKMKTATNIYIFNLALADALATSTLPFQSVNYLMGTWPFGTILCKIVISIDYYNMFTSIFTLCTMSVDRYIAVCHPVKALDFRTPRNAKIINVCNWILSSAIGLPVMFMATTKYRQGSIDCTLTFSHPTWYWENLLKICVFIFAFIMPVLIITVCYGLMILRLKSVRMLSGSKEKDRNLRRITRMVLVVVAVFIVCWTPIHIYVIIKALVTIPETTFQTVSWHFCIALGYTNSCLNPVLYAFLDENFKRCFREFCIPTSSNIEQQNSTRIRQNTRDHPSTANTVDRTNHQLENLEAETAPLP
Chain of Voltage-gated inwardly rectifying potassium channel KCNH2 (Q12809 whole entry): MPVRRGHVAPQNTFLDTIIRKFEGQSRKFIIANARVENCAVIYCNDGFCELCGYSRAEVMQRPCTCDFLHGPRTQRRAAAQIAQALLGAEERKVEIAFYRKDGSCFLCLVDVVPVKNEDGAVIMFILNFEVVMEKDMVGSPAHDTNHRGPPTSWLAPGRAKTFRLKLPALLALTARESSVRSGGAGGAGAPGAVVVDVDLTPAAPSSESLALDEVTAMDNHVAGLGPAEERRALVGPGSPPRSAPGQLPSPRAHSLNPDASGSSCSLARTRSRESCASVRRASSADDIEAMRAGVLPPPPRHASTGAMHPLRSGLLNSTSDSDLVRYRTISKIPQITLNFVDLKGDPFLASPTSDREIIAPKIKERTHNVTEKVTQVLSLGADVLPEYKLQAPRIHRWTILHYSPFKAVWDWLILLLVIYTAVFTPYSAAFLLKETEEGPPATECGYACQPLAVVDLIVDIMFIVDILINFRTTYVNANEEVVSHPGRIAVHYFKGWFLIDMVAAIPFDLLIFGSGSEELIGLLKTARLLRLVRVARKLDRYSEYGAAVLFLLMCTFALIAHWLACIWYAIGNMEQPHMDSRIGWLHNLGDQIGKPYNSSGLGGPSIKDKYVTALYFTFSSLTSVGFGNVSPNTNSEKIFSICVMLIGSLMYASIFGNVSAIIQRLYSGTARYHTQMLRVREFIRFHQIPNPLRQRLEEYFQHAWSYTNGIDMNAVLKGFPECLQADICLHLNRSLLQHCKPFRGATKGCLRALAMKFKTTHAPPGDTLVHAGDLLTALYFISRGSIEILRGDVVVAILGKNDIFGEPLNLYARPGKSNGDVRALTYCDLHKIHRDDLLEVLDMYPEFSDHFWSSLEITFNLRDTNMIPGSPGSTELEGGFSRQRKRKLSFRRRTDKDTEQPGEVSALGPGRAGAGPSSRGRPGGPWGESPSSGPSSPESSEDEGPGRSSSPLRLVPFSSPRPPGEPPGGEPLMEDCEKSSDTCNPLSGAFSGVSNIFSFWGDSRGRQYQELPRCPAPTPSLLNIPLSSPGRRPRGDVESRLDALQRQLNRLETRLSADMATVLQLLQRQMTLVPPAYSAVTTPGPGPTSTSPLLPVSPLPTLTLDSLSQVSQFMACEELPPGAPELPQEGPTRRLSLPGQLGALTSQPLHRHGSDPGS
Chain of Sodium-dependent noradrenaline transporter (P23975 whole entry): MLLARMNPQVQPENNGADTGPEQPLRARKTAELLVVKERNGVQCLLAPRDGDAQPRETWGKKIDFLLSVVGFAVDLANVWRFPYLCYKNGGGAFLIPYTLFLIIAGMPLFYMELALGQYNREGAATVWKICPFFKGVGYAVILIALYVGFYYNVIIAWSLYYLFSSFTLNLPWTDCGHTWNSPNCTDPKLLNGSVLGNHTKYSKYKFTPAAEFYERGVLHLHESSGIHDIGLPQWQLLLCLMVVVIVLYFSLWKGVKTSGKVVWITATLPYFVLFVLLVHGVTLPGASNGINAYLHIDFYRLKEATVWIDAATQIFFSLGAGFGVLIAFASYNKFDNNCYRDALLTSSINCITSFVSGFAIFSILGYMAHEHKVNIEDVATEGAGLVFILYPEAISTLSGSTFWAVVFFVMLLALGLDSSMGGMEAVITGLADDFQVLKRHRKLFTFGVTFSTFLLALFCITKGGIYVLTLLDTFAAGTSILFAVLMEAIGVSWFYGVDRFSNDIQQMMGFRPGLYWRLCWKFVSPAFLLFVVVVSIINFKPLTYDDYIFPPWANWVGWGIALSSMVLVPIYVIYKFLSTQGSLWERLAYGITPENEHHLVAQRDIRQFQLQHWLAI
Chain of D(3) dopamine receptor (P35462 whole entry): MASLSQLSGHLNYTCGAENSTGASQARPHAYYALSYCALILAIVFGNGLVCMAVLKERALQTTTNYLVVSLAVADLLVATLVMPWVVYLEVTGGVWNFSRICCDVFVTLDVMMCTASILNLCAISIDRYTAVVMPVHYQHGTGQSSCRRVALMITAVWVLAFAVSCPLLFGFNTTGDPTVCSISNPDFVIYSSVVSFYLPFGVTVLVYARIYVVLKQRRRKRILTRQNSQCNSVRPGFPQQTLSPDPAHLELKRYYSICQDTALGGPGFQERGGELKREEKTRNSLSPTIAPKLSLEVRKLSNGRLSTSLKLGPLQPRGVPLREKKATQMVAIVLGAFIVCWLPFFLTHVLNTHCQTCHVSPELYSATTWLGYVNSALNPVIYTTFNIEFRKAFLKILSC

By AC50 is commonly meant the concentration giving half of the maximal activity seen. In the case of `C[C@]12CC[C@H](O)CC1=CC[C@@H]1[C@@H]2CC[C@]2(C)C(c3cccnc3)=CC[C@@H]12` [ABIRATERONE], in experiment [1], the concentration at half-maximal activity (AC50) is above 30 µM.

For `CN(C)C(=O)Oc1cc(OC(=O)N(C)C)cc(C(O)CNC(C)(C)C)c1` (stereo not drawn) [BAMBUTEROL], the AC50 in experiment [1] was determined as 16 µM.

Turning to `CO[C@@]1(NC(=O)CSCC#N)C(=O)N2C(C(=O)O)=C(CSc3nnnn3C)CS[C@@H]21` [CEFMETAZOLE], the half-maximal activity concentration (AC50) (on D(3) dopamine receptor; on Estrogen receptor; at Histamine H3 receptor; in experiment [1]; in experiment [2]; at Mu-type opioid receptor) was above 30 µM throughout. Moreover, the AC50 (in experiment [3]; on Progesterone receptor; in [4]; in experiment [5]; in [6]; in experiment [7]) was above 30 µM each time.

Turning to `NS(=O)(=O)c1cc(C2(O)NC(=O)c3ccccc32)ccc1Cl` (stereo not drawn) [CHLORTHALIDONE], the AC50 in [1] was above 30 µM.

With `O=C(O)CC(O)(CC(=O)O)C(=O)O` [CITRIC ACID], the AC50 (at D(3) dopamine receptor; on Estrogen receptor; at Histamine H3 receptor; in experiment [2]; at Mu-type opioid receptor; in experiment [3]) was above 30 µM in each case. For the same compound, the AC50 (on Progesterone receptor; in experiment [4]; in experiment [5]; in experiment [6]; in [7]) was above 30 µM in each case.

As for `CC[C@H]1OC(=O)[C@H](C)[C@@H](O[C@H]2C[C@@](C)(OC)[C@@H](O)[C@H](C)O2)[C@H](C)[C@@H](O[C@@H]2O[C@H](C)C[C@H](N(C)C)[C@H]2O)[C@](C)(OC)C[C@@H](C)C(=O)[C@H](C)[C@@H](O)[C@]1(C)O` [CLARITHROMYCIN], the AC50 (at D(3) dopamine receptor; on Estrogen receptor; on Histamine H3 receptor; in experiment [1]; in experiment [2]; on Mu-type opioid receptor) was above 30 µM in each case. The half-maximal activity concentration (AC50) (in experiment [3]; on Progesterone receptor; in experiment [4]; in experiment [5]; in experiment [6]; in experiment [7]) was above 30 µM throughout.

With `C[C@@H]1CCC[C@H](C)N1NC(=O)c1ccc(Cl)c(S(N)(=O)=O)c1` [CLOPAMIDE], the AC50 in [1] is above 30 µM.

Take `COc1ccc2c(c1)[C@]13CCCC[C@@H]1[C@H](C2)N(C)CC3` [DEXTROMETHORPHAN]: in experiment [1], the half-maximal activity concentration (AC50) is 21.1 µM.

As to `O=c1oc2ccccc2c(O)c1Cc1c(O)c2ccccc2oc1=O` [DICUMAROL], the AC50 in experiment [1] was above 30 µM.

Turning to `C[C@H]1O[C@@H](O[C@H]2[C@@H](O)C[C@H](O[C@H]3[C@@H](O)C[C@H](O[C@H]4CC[C@@]5(C)[C@H](CC[C@@H]6[C@@H]5CC[C@]5(C)[C@@H](C7=CC(=O)OC7)CC[C@]65O)C4)O[C@@H]3C)O[C@@H]2C)C[C@H](O)[C@@H]1O` [DIGITOXIN], the AC50 (on D(3) dopamine receptor; on Estrogen receptor; at Histamine H3 receptor; in [1]; in [2]; at Mu-type opioid receptor) was above 30 µM each time. Moreover, the AC50 (in experiment [3]; on Progesterone receptor; in experiment [4]; in [5]; in experiment [6]; in [7]) was above 30 µM throughout.

For `OC(CCCN1CCCCC1)(c1ccccc1)c1ccccc1` [DIPHENIDOL], the half-maximal activity concentration (AC50) is 2.15 µM at D(3) dopamine receptor; above 30 µM on Estrogen receptor; above 30 µM at Histamine H3 receptor; 16 µM in [1]; above 30 µM in experiment [2]; 25.2 µM at Mu-type opioid receptor. In addition, the AC50 (in experiment [3]; at Progesterone receptor; in [4]; in experiment [5]; in [6]; in experiment [7]) was above 30 µM each time.

For the compound `O=C(CCCN1CC=C(n2c(=O)[nH]c3ccccc32)CC1)c1ccc(F)cc1` [DROPERIDOL], the AC50 (on D(3) dopamine receptor; at Estrogen receptor; at Histamine H3 receptor; in [2]; at Mu-type opioid receptor; in experiment [3]) was above 30 µM throughout. In addition, the AC50 (at Progesterone receptor; in experiment [4]; in experiment [5]; in [6]; in [7]) was above 30 µM throughout.

Regarding `O=C(O)CSCC(=O)NC1CCSC1=O` (stereo not drawn) [ERDOSTEINE], the AC50 in [1] is above 30 µM.

On to `COc1cccc(N(C)C(=S)Oc2ccc3c(c2)CCCC3)n1` [LIRANAFTATE], for which the AC50 in experiment [1] is above 30 µM.

As to `C#C[C@]1(O)CC[C@H]2[C@@H]3CCc4cc(OC)ccc4[C@H]3CC[C@@]21C` [MESTRANOL], in experiment [1], the AC50 is above 30 µM.

In the case of `N=C(N)c1ccc2cc(OC(=O)c3ccc(N=C(N)N)cc3)ccc2c1` [NAFAMOSTAT], the AC50 in experiment [1] came to 3.3 µM.

`O=C(O)c1cc(O)c2c3nc4ccccc4oc-3cc(=O)c2n1` [PIRENOXINE]: the AC50 in experiment [1] is above 30 µM.

Turning to `NS(=O)(=O)c1cc(C(=O)O)cc(N2CCCC2)c1Oc1ccccc1` [PIRETANIDE], the half-maximal activity concentration (AC50) in experiment [1] is above 30 µM.

In the case of `CNCCCC1c2ccccc2C=Cc2ccccc21` [PROTRIPTYLINE], the AC50 in experiment [1] came to 1 µM.

As to `COCCCOc1ccnc(C[S+]([O-])c2nc3ccccc3[nH]2)c1C` (stereo not drawn) [RABEPRAZOLE], the AC50 at D(3) dopamine receptor is above 30 µM; at Histamine H3 receptor it was above 30 µM; in [1] it was 5.33 µM; in [2], above 30 µM; on Mu-type opioid receptor, 7.93 µM; in [3], above 30 µM. Moreover, the AC50 was above 30 µM on Progesterone receptor; 0.71 µM in experiment [4]; 25.4 µM in [5]; 17.9 µM in experiment [6]; above 30 µM in experiment [7].

For the compound `CC(C)=CCOc1ccc(/C=C/C(=O)c2ccc(OCC=C(C)C)cc2OCC(=O)O)cc1` [SOFALCONE], the AC50 in experiment [1] is above 30 µM.

As to `O=C(CCCN1CCC2(CC1)C(=O)NCN2c1ccccc1)c1ccc(F)cc1` [SPIPERONE], in experiment [1], the AC50 was found to be 0.22 µM.

For `CN(C)c1cc(NC(=O)CNC(C)(C)C)c(O)c2c1C[C@H]1C[C@H]3[C@H](N(C)C)C(O)=C(C(N)=O)C(=O)[C@@]3(O)C(O)=C1C2=O` [TIGECYCLINE], the AC50 in experiment [1] is above 30 µM.

Regarding `OCCN1CCN(CC/C=C2/c3ccccc3Sc3ccc(Cl)cc32)CC1` [ZUCLOPENTHIXOL], in experiment [1], the AC50 was determined as 0.9 µM.
